Results as given in US7091222B2, “Imidazole derivatives” (Hoffmann-La Roche Inc., priority 2003, dated 2006).

Biological target: T1, human mGlu 5a receptor (Homo sapiens, UniProt P41594)
T1 construct: expressed in transfected cells; host or cells: EBNA cells (transient transfection); membrane homogenates
Assay: [3H]MPEP competition binding on membranes of EBNA cells transfected with human mGlu 5a receptor
Conditions: competition with [3H]MPEP (2 nM), 1 h at 4° C., membranes of transiently transfected EBNA cells; Ki=IC50/[1+L/Kd]
Experimental: For binding experiments, cDNA encoding human mGlu 5a receptor was transiently transfected into EBNA cells using a procedure described by Schlaeger and Christensen [Cytotechnology 15:1–13 (1998)]. Cell membrane homogenates were stored at −80° C. until the day of assay where upon they were thawed and resuspended and polytronised in 15 mM Tris-HCl, 120 mM NaCl, 100 mM KCl, 25 mM CaCl2, 25 mM MgCl2 binding buffer at pH 7.4 to a final assay concentration of 20 μg protein/well.
Saturation isotherms were determined by addition of twelve [^3H]MPEP concentrations (0.04–100 nM) to these membranes (in a total volume of 200 μl) for 1 h at 4° C. Competition experiments were performed with a fixed concentration of [^3H]MPEP (2 nM) and IC50 values of test compounds evaluated using 11 concentrations (0.3–10,000 nM). Incubations were performed for 1 h at 4° C.
At the end of the incubation, membranes were filtered onto unifilter (96-well white microplate with bonded GF/C filter preincubated 1 h in 0.1% PEI in wash buffer, Packard BioScience, Meriden, Conn.) with a Filtermate 96 harvester (Packard BioScience) and washed 3 times with cold 50 mM Tris-HCl, pH 7.4 buffer. Nonspecific binding was measured in the presence of 10 μM MPEP. The radioactivity on the filter was counted (3 min) on a Packard Top-count microplate scintillation counter with quenching correction after addition of 45 μl of microscint 40 (Canberra Packard S. A., Zürich, Switzerland) and shaking for 20 min.
The inhibition (antagonists) curves were fitted with a four parameter logistic equation giving IC50, and Hill coefficient using an iterative non linear curve fitting software (Xcel fit).
For binding experiments the Ki values of the compounds tested are given. the Ki value is defined by the following formula: Ki=IC50/[1+L /Kd] in which the IC50 values are those concentrations of the compounds tested which cause 50% inhibition of the competing radioligand ([^3H]MPEP). L is the concentraion of radioligand used in the binding experiment and the Kd value of the radioligand is empirically determined for each batch of membranes prepared.

T1 sequence (P41594 21-1180 isoform P41594-2 limits assumed): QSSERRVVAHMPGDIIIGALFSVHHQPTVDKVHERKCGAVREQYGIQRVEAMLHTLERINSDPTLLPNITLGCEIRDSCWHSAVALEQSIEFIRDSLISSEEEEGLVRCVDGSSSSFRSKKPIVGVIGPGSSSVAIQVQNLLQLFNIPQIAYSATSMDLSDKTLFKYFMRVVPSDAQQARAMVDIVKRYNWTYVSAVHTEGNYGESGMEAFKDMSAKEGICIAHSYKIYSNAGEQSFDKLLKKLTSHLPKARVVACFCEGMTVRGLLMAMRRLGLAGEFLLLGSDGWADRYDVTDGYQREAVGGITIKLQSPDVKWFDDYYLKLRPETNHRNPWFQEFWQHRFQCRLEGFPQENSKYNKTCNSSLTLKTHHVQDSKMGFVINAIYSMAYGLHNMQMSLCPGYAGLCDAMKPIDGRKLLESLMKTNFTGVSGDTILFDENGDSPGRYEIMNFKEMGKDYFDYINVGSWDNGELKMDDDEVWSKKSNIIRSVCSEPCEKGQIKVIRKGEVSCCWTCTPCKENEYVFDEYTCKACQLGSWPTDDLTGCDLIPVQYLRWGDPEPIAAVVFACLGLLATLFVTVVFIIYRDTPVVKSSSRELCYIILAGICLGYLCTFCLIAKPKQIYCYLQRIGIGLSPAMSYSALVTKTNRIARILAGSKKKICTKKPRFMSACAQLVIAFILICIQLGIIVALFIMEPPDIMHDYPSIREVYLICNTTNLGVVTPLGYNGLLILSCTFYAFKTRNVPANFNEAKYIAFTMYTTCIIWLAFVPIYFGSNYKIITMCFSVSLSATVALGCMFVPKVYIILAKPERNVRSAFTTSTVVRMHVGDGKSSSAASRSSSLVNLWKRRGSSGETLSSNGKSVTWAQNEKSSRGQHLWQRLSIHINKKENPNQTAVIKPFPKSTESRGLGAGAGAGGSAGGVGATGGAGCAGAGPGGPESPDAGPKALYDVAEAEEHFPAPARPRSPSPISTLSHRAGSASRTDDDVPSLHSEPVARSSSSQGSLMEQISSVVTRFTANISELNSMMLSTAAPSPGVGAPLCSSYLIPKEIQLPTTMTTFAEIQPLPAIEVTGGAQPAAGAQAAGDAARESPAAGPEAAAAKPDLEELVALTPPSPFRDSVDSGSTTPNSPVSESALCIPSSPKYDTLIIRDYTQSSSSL

Ki [nM] | SMILES
95 | Cc1nc(C#Cc2ccnc(Cl)c2)cn1CC(F)(F)F [Example 22, 2-Chloro-4-[2-methyl-1-(2,2,2-trifluoro-ethyl)-1H-imidazol-4-ylethynyl]-pyridine]
28 | Cc1cc(C#Cc2cn(C)c(C3CC3)n2)ccn1 [Example 13, 4-(2-Cyclopropyl-1-methyl-1H-imidazol-4-ylethynyl)-2-methyl-pyridine]
122 | COCCn1cc(C#Cc2ccnc(C)c2)nc1C [Example 7, 4-[1-(2-Methoxy-ethyl)-2-methyl-1H-imidazol-4-ylethynyl]-2-methyl-pyridine]
49 | Cc1nc(C#Cc2ccnc(Cl)c2)cn1C [Example 12, 2-Chloro-4-(1,2-dimethyl-1H-imidazol-4-ylethynyl)-pyridine]
38 | Cc1cc(C#Cc2cn(CC3CC3)c(C)n2)ccn1 [Example 4, 4-(1-Cyclopropylmethyl-2-methyl-1H-imidazol-4-ylethynyl)-2-methyl-pyridine]
54 | Cc1cc(C#Cc2cn(CC(F)(F)F)c(C)n2)ccn1 [Example 21, 2-Methyl-4-[2-methyl-1-(2,2,2-trifluoro-ethyl)-1H-imidazol-4-ylethynyl]-pyridine]
33 | Cc1cc(C#Cc2cn(CC#N)c(C)n2)ccn1 [Example 6, [2-Methyl-4-(2-methyl-pyridin-4-ylethynyl)-imidazol-1-yl]-acetonitrile]
68 | Cc1cc(C#Cc2cn(C(C)C)c(C)n2)ccn1 [Example 2, 4-(1-Isopropyl-2-methyl-1H-imidazol-4-ylethynyl)-2-methyl-pyridine]
191 | Cc1nc(C#Cc2ccnc(Cl)c2)cn1CC(C)C [Example 8, 2-Chloro-4-(1-isobutyl-2-methyl-1H-imidazol-4-ylethynyl)-pyridine]
